# Experimental data reported in US11931335B2, “Enhancing autophagy or increasing longevity by administration of urolithins or precursors thereof” (Amazentis SA, priority 2012, dated 2024).
# Entries after “also recorded” stand apart in the source; their conditions may differ.
# What was measured:
# [1] = test system: sir-2.1(ok434) mutant C. elegans; assay: Lifespan assay, sir-2.1 mutant C. elegans; assay type: in vivo
# Experimental: Lifespan assays were performed with (A) wild-type (N2), (B) sir-2.1(ok434) mutant, (C) aak-2(ok524), (D) daf-16(mu86), (E) eat-2(ad465) and (F) daf-2(e1370) mutant strains of C. elegans maintained during their full life on plates supplemented with either 50 μM of urolithin A or with a control treatment and seeded with OP50 bacteria. Control plates without urolithin A contained an equivalent concentration of DMSO. Worm lifespan assays were performed at 20° C.
# sir-2.1: sir-2.1 encodes the mammalian homolog of the NAD-dependent deacetylase SIRT1 in C. elegans. SIR-2.1/SIRT1 activity is mediated by NAD^+ level and is well described to be involved in longevity regulation in yeast, C. elegans, and Drosophila in response to caloric restriction.
# [2] = test system: C. elegans wild-type Bristol N2; assay: Oxygen consumption (Seahorse XF24) in aged C. elegans; assay type: in vivo
# Experimental: C. elegans strains were cultured at 20° C. on nematode growth media (NGM) agar plates seeded with E. coli strain OP50. Strain used was wild-type Bristol N2 provided by the Caenorhabditis Genetics Center (University of Minnesota). Urolithin A was dissolved in DMSO. Animals were exposed to compounds from eggs on plates seeded with live OP50 bacteria. Control plates were prepared with the corresponding concentration of DMSO (0.1%).
# The effect of urolithin A on mitochondrial activity in aged C. elegans (10 days old) was assessed by treating C. elegans with urolithin A for 10 days of adulthood, at which time oxygen consumption was measured using the Seahorse XF24 equipment (Seahorse Bioscience Inc., North Billerica, MA). […] Worms were transferred into 24-well standard Seahorse plates (#100777-004) (50 worms per well) and oxygen consumption was measured. The basal oxygen consumption of the worms was first measured over 30 minutes at 5-minute intervals (0 min, 5 min, 15 min, 20 min, 25 min, and 30 min) with 5 replicates per interval. Respiration rates were normalized to the exact number of worms per well determined after the completion of the experiment using a stereomicroscope. […] Uncoupled oxygen consumption was measured at 5-minute intervals (35 min, 40 min, 45 min, 50 min, 55 min, and 60 min) to permit measuring the mitochondrial function over time.
# [3] = test system: C. elegans fed bec-1 RNAi; assay: Lifespan with RNAi against bec-1; assay type: in vivo; conditions: 50 μM; vs empty vector; FIG. 10C
# Experimental: Lifespan tests were performed as described. Mouchiroud L et al. (2011) Aging Cell 10:39-54. Briefly, worms were observed using a Nikon SMZ1500 stereomicroscope (Nikon, Melville, NY, USA). Briefly, 10 L4 worms were transferred on plates containing NGM medium with vehicle (DMSO 0.1%, final concentration) or urolithin A dissolved in DMSO (final concentration 50 μM) and seeded with E. coli RNAi clones as indicated. After 3 days (corresponding to day 0), newly developed 60-100 L4 worms were used per condition, scored and transferred to fresh plates every 3 days starting from day 1 (young adult worms). All lifespan experiments were performed at 20° C.
# Survival analyses were performed using the Kaplan Meier method and the significance of differences between survival curves calculated using the log rank test. Differences between two groups were assessed using two-tailed t-tests. Analysis of variance, assessed by Bonferroni's multiple comparison test, was used when comparing more than two groups. The statistical software used was GraphPad Prism 5 (GraphPad Software, Inc.) and all p-values <0.05 were considered significant.
# Gene silencing was carried out as previously described by using the RNA interference (RNAi) process. Mouchiroud L et al. (2011) Aging Cell 10:39-54. In C. elegans, RNAi is made by feeding. […]
# [4] = test system: C. elegans wild type (N2, Bristol); assay: Mobility tracking of C. elegans during aging; assay type: in vivo; conditions: days 1, 3, 5 and 8 of adulthood; 50 μM; FIG. 12
# Experimental: To examine the effect of urolithins on muscle activity during aging, C. elegans mobility was examined over time. Synchronized populations of wild-type nematodes were prepared by standard methods and cultivated at 20° C. on NGM agar containing E. Coli (OP50) with or without test compounds (ellagic acid (EA), urolithins A (UA), and B (UB)). At Day 0, five plates were prepared, each containing 10 young adult worms. Worms were assayed for mobility at different ages, day 1, 3, 5 and 8 of adulthood. The wild type (N2, Bristol) worm strain was employed for these studies.
# For C. elegans movement tracking, 45 seconds of video were recorded using a Nikon DS-L2/DS-Fi1 camera and controller setup, attached to both a computer and a standard bright field microscope, tracking an entire plate of 10 worms, with 5 plates per condition. The movement of worms during this time was calculated using an adapted version of the freely-available software Parallel Worm Tracker for MATLAB. The total movement over the 45 second tracking was averaged across all worms for each condition. This experiment was repeated twice with between 40 and 70 worms per condition.
# [5] = test system: gastrocnemius muscles of aged C57BL/6J mice; assay: Autophagy in skeletal muscle of aged mice; assay type: in vivo, mouse; conditions: 50 mg/kg/day in food, 34 weeks
# Experimental: Locomotor activity may be also assessed by measuring animal movements using infrared detection. To determine the effects of urolithin A on spontaneous locomotor activity in aged animals, 16-month-old C57BL/6J mice were treated with either a standard rodent diet or a diet containing urolithin A mixed with food to reach a dosing of 50 mg/kg/day delivered to mice. Following 34 weeks of treatment with urolithin A, mice were placed in a locomotor activity monitoring system, TSE Systems. Infrared transmitters and receivers are placed in the x, y, and z axis. Interruption of the infrared beams in the x, y axis by the passage of the mouse, allows for a measurement of the horizontal movement (ambulation). Interruption of the infrared beams in the z axis by the mouse, allows for the measurement of rearing behavior. Each beam interruption results in one count being recorded. Total counts were measured for each 30 minute period over a two day period. The total counts observed during the 12 hour dark period, which corresponds to the time of highest activity in mice, were summed for each animal.
# Following 34 weeks of treatment, the mice from Example 19 were sacrificed and the organs were collected. The gastrocnemius muscles were assessed for the presence of autophagy by the assessment of the change in the ratio of the autophagy markers LC3 and p62 using western blot analysis. Each lane corresponds to a muscle sample from an individual mouse. The ratio of LC3-II/LC3-I increased in the muscles of urolithin A (UA)-treated mice versus untreated mice. This was accompanied by a decrease in the levels of p62 in the muscles of UA treated versus untreated mice. These shifts in the levels of LC3 and p62 in the muscle of mice are consistent with an increase in the level of autophagy taking place.
smiles,measurement,setting,value
"O=c1oc2cc(O)ccc2c2ccc(O)cc12 [Urolithin A, urolithin A]",Median lifespan,"[1]; sir-2.1(ok434), 50 μM UA",23 days
same,Lifespan extension compared to control (%),"[1]; sir-2.1(ok434), 50 μM UA vs 1% DMSO",+9.5%
same,activity of urolithin A on the extension of median lifespan,[1]; sir-2.1 mutant,completely suppressed
same,"basal respiration, 10-day-old vs 1-day-old worms","[2]; 30 μM, FIG. 8D",normalizes the respiration rates
same,"uncoupled (FCCP) respiration, area under the curve","[2]; 10-day-old worms, 30 μM urolithin A, 30-minute period, FIGS. 8A-8B",significantly increased uncoupled respiration
same,lifespan extension by urolithin A under bec-1 RNAi,[3],suppressed; also recorded: totally suppress the lifespan phenotype
same,age related mobility decline,[4],marked ability to reduce muscle function decline
same,levels of p62,[5],decreased
same,ratio of p-AMPKα/AMPKα,[5],increase
same,ratio of LC3-II/LC3-I,[5]; FIG. 24,increased
same,levels of p62,[5]; listed as UA,decrease
